# pEC50: −log10 of the molar value. Read-outs that look alike come from different tables or passages of the source.
# Key:
# FXR = target: T1, FXR (Rattus norvegicus, UniProt Q62735); experiment: cell-based
# T1 sequence (Q62735 1-469): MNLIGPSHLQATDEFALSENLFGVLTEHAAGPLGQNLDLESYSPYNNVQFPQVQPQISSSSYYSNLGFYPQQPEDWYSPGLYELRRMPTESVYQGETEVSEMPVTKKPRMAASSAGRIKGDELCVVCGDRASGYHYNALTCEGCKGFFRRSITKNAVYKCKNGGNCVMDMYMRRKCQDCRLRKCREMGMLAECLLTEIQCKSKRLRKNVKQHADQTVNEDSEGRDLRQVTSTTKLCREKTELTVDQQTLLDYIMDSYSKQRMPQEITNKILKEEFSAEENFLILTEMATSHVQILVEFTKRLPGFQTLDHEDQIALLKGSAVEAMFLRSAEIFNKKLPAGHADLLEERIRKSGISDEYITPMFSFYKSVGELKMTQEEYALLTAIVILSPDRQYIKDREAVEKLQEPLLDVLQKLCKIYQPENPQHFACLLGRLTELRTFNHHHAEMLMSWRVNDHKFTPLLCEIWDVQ
# T1 sequence (P28700 1-467 partner): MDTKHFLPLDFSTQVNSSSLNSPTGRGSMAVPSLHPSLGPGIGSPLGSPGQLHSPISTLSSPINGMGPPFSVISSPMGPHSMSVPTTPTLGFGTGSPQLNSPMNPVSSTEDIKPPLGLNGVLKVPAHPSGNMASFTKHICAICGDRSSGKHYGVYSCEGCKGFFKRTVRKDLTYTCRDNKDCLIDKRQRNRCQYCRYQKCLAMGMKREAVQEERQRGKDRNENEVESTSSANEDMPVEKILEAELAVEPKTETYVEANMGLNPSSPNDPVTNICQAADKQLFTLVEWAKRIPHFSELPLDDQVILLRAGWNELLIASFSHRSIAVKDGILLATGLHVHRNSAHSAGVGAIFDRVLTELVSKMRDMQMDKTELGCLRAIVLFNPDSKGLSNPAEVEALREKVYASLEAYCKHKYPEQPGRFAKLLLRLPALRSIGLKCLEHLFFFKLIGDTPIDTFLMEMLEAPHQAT
# How it was run: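 CHO cells co-transfected with FXR, mouse RXRα and a (EcRE)5-ΔMTV-CAT reporter, with β-galactosidase for normalization. An RXR-dependent CRBPII-CAT reporter was run in parallel. Cells were exposed to candidate juvenoids for 24 h; CAT activity normalized to β-gal and expressed as fold induction over vehicle controls.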
# [1] = via 20,22-dihydroxycholesterol intermediate; read-out: apparent Km of metabolism to pregnenolone; cited from earlier work
# [2] = system: Leptinotarsa decemlineata EcR; experiment: Leptinotarsa decemlineata EcR/USP, response to agonists (FIG. 7, 8); format: cell-based; settings: FIG. 8
# Experimental: Unless noted otherwise, 100 ng of each EcR and USP plasmid was transfected into 2 ml of cell culture medium. As noted above, a reporter gene carrying five tandem copies of the hsp27 ecdysone response element (Riddihough and Pelham, 1986) is attached to a constitutive thymidine kinase promoter and a luciferase reporter gene (pEcREtk-LUC) and cotransfected into the cells along with vectors expressing EcR, USP, and a constitutively active β-galactosidase gene with lipofection, following manufacturer's protocols. The subsequent measure of luciferase activity reflects ecdysteroid-inducible transcription.
# After a 4 hour transfection period, the hormone treatment was applied by diluting stock solutions of muristerone A (murA; Alexis Corporation, San Diego, Calif.), JHI (Scitech), JHIII (Sigma, St Louis, Mo.), and/or 20E (Sigma, St Louis, Mo.) in DMSO. The cells were harvested 24 hours after treatment and the contents of the cells extracted for performing the luciferase and β-galactosidase assays.
# Leptinotarsa decemlineata (Ld) USP constructs were made by sub-cloning two different LdUSP inserts into the pVP16 vector (Clontech). This vector encodes a fusion protein of the herpes simplex virus […] viral protein (VP16) activation domain (AD) fused to LdUSP. The LdUSP portion of the fusion gene was isolated by PCR in two different lengths from a plasmid, pBSKS(+)-LdUSP. […]
# GGEc = target: T2, GGEc (Drosophila melanogaster, UniProt P34021); experiment: GGEc chimera (GR amino terminus and DBD, EcR LBD) with RXR in CHO cells; format: cell-based
# T2 construct: were replaced by EcR LBD amino acids (EcR amino acids 329 to 878); expressed in transfected cells; host or cells: CHO
# T2 sequence (P34021 329-878): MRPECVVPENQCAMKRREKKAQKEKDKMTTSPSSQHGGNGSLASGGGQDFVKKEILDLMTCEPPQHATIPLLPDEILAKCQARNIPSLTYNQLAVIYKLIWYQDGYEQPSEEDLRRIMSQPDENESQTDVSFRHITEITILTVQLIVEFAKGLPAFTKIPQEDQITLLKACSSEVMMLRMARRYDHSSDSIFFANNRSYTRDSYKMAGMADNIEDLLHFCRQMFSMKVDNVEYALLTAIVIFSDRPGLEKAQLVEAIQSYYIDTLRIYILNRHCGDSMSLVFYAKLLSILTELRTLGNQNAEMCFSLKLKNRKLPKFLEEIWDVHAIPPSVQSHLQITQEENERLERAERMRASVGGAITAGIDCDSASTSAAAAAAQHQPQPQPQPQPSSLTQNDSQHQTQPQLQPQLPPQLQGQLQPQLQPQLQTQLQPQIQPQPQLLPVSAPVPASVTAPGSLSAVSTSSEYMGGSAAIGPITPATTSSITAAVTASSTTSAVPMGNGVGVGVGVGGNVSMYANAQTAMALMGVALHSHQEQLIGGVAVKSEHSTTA
# Description: For these experiments, the luciferase reporter construct was used. To obviate influences from other transcription factors, results were normalized using a reporter plasmid from which CAT expression is driven by a minimal promoter consisting of dimerized GREs linked upstream of a 13 base pair TATA box DNA element derived from the adenovirus E1B gene.
# In this experiment, GGEc and RXR were transfected into CHO cells with either a CAT or a luciferase reporter plasmid containing 1.5 kilobase pairs of the glucocorticoid-inducible mouse mammary tumor virus (MTV) promoter.
# In these experiments, CHO cells were transfected with a GGEc-expressing plasmid, a mouse RXRα expression plasmid, and an adenovirus E1b TATA-(GRE)2-CAT reporter plasmid. The GGEc plasmid was eliminated from DNA mixtures added to cells transfected in parallel. CAT activities were measured from lysates of cells from triplicate wells treated with ethanol vehicle, juvocimene (20 μM), muristerone A (0.2 μM), or both.
# In these experiments, CHO cells were transfected with DNAs as described above but ubiquinone-2 (10 μM) was substituted for juvocimene.
# GGF = target: T3, GGF (Rattus norvegicus, UniProt Q62735); experiment: GGF chimera (GR amino terminus and DBD, FXR LBD) in CHO cells; format: cell-based; settings: data not shown
# T3 construct: the GR amino terminus and DBD (appending 23 amino acids downstream from the conserved gly-met) were fused to the FXR LBD; expressed in transfected cells; host or cells: CHO
# Description: A plasmid was constructed that expresses a hybrid protein (GGF) consisting of the human GR amino terminus and DBD linked to the carboxyl terminus of FXR.
# In these experiments, CHO cells were transfected with receptor plasmids expressing GGF and mouse RXRα and a luciferase reporter plasmid containing the upstream 1.5 kbp of the MTV promoter.
# insect = settings: from Schneiderman and Gilbert, Science 143; cited from earlier work
# GR = GR (Homo sapiens, UniProt P04150); experiment: GR-based transcriptional assay; format: cell-based; settings: data not shown
# Chain of GR (P04150 whole entry): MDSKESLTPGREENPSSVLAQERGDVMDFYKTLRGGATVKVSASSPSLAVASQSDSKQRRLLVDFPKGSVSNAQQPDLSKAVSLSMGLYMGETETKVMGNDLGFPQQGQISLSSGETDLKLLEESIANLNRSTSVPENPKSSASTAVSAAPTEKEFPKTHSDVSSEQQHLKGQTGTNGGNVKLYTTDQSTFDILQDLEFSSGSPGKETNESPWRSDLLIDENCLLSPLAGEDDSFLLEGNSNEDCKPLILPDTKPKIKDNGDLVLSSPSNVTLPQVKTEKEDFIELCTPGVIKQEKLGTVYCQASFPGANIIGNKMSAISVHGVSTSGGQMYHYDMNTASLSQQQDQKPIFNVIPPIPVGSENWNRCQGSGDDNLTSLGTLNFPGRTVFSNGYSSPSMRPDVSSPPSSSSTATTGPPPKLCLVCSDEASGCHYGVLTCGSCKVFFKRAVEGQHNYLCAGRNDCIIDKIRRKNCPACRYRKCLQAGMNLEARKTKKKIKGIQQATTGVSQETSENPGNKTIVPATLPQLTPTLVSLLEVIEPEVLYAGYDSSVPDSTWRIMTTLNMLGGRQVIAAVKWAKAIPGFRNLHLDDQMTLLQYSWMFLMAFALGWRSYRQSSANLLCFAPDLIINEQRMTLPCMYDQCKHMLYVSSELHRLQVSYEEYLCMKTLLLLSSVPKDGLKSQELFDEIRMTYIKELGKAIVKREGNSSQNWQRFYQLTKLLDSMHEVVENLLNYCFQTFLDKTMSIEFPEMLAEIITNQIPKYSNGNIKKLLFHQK
# PPAR = experiment: PPAR-based transcriptional assay; format: cell-based; settings: data not shown
# RXR = RXR (Mus musculus, UniProt P28700); experiment: RXR-based transcriptional assay; format: cell-based; settings: data not shown
# RAR = experiment: RAR-based transcriptional assay; format: cell-based; settings: data not shown
# tobacco hornworm larvae = settings: cited from earlier work
compound,measurement,setting,value
"CC(C)CC[C@@H](O)[C@@H](C)[C@H]1CC[C@H]2[C@@H]3CC=C4C[C@@H](O)CC[C@]4(C)[C@H]3CC[C@]12C [22R-hydroxycholesterol, 22R-Hydroxycholesterol]","FXR-dependent transcription, induction",FXR; 7.5 μM,10 fold
same,Km,[1],7 µM
COc1cccc(C(=O)NN(C(=O)c2cc(C)cc(C)c2)C(C)(C)C)c1C [RH2485],"stimulation of Leptinotarsa EcR, agonists compared",[2],"much greater stimulation by RH2485, than by murA or 20E"
"COC1=C(OC)C(=O)C(C/C=C(\C)CCC=C(C)C)=C(C)C1=O [U2, ubiquinone-2]",GGEc-dependent activity increase over MUR,"GGEc; 10 μM ubiquinone-2, muristerone A",7 times
same,"FXR-dependent activity, induction",FXR; dose not stated,7 fold
O=c1ccc2cc(O)c(O)cc2o1 [esculetin],"FXR-dependent activity, induction",FXR; 1 mM,ineffectiveness
same,inhibition at 100 µM,"FXR; CHO, read-out: inhibition of FXR activity induced by farnesol",44%
same,inhibition of CDCA-induced GGF-dependent activity,GGF,54%
C=CC(C)(O)CCC=C(C)CCC=C(C)C (centres unmarked) [nerolidol],JH ACTIVITY (units/g),insect,8.9 units/g
same,GGEc transcription with compound plus MUR relative to MUR alone,"GGEc; 50 μM compound, 0.2 μM MUR",between two and four times more
same,pEC50,FXR,4.82
same,"FXR-dependent CAT activity, induction",FXR; 50 μM,9 fold
same,FXR ACTIVITY (fold-induction),"FXR; final dose of 50 ∝M, 1 = induction less than 2-fold below cytotoxic doses",9 fold-induction
COc1ccc2c(c1)OC(C)(C)C=C2 [precocene I],activity in GR-based transcriptional assay,GR,inactive
same,reduction of FXR activity of mouse liver microsome extract by ethyl acetate-soluble products,"FXR; 100 μM TLC-purified precocene I incubated with CD-1 mouse liver microsomes, NADPH, 37° C., one hour",70%
same,"FXR-dependent activity, induction",FXR; dose not stated,15 fold
same,FXR activity of TLC-separated material from precocene I,"FXR; eluted from silica, hexane-ethyl acetate (9:1)",did not affect FXR
same,pEC50,FXR; read-out: EC50 for FXR-dependent CAT activity,3.82
same,activity in PPAR-based transcriptional assay,PPAR,inactive
same,activity in RXR-based transcriptional assay,RXR,inactive
same,activity in RAR-based transcriptional assay,RAR,inactive
Cn1c(=O)c2[nH]cnc2n(C)c1=O [theophylline],"FXR-dependent activity, induction",FXR; 3 mM,12 fold
same,FXR ACTIVITY (fold-induction),FXR; dose 3000 μM,12 fold-induction
same,"FXR-dependent activity, induction",FXR; theophylline (3 mM) mixed with 8-Br-cAMP (1 mM),more than 100 fold
same,concentration in tobacco hornworm larvae,tobacco hornworm larvae; three days after eating tomato leaves sprayed with 1% theophylline,4000 µM
same,reduction of leaf consumption,tobacco hornworm larvae; tomato leaves sprayed with 1% theophylline,by half
